Where two headings read alike, the source gives them in different places.
Key:
ENPP-1 ECD [1] = biological target: T1, ENPP-1 ECD (Homo sapiens (Human), UniProt P22413); experiment: Assay 2: inhibition of ENPP1 hydrolysis of 2′,3′-cGAMP (AMP-Glo, […] enzyme)
Protocol: Assay 2: Compared to the conditions in Assay 1, this assay has a larger dynamic range and ensures the system is under steady-state conditions by reducing the enzyme concentration in the assay.
Test compounds were plated in a 3× dilution scheme in a 384 well plate. […] AMP Detection solution (10 μL) was added to each well, the plate centrifuged and incubated for 60 min.

[2] = biological target: ENPP1 on MDA-MB-231 cells (Homo sapiens (Human), UniProt P22413); experiment: Assay 3: inhibition of ENPP1 hydrolysis of AMP p-nitrophenyl ester on MDA-MB-231 cells
Protocol: Hydrolysis of the p-nitrophenyl ester of AMP (pNP-AMP), an isostere of ATP, is selectively catalyzed by ENPP1 in the supernatant of MDA-MB-231 cell cultures. Inhibition of the hydrolysis of pNP-AMP by MDA-MB-231 at pH 7.4 and 37° C., is a good model of physiologically relevant activity of membrane-bound ENPP1 at disease-relevant expression levels.
MDA-MB-231 cells were harvested using TypLE Express Enzyme digestion and suspended in 100 μL of Leibovitz's L-15 Medium, 20% FBS, seeding the cells in a 96-well assay plate with 4.5×10^4 cells/well. Cells were incubated at 37° C. with 1% CO2 for 24 h. In a separate dilution plate, 2× of top dose of compound was prepared in phenol-red free 1640 medium without FBS and then 1:3 serial diluted in the same medium. The cell culture medium of L15 medium was aspirated carefully and cells were washed with PBS once, and 50 μL per well of test compound or DMSO blank were added to the assay plate. Substrate mix (50 μL; 0.5 mM pNP-AMP in phenol-red free 1640 media without FBS) was added for a pNP-AMP final concentration of 0.25 mM. The system was incubated at 37° C. for 3 h.

ENPP-1 ECD [3] = biological target: T1, ENPP-1 ECD; experiment: Assay 1: inhibition of ENPP1 hydrolysis of 2′,3′-cGAMP (AMP-Glo, […] enzyme); conditions: Assay 1 (IC50)
Protocol: Assay 1: Test compounds were plated in a 3× dilution scheme in a 384 well plate. […] AMP Detection solution (100 μL) was added to each well, the plate centrifuged and incubated for 60 min.

[4] = read-out: Assay 2 (KI), ENPP1 hydrolysis of 2′,3′-cGAMP, AMP-Glo, […] ENPP-1, 24 μM cGAMP
[5] = read-out: Assay 2 (KI), inhibition of ENPP1 hydrolysis of 2′,3′-cGAMP, no unit in Table 18 (Table 17 legend for this assay uses nM)
[6] = read-out: Assay 3 (KI, app), apparent KI from IC50 via Cheng/Prusoff, pNP-AMP […], MDA-MB-231 cells, pH 7.4, 37° C., 3 h, unit inferred
[7] = Assay 2 (KI), inhibition of ENPP1 hydrolysis of 2′,3′-cGAMP, no unit in Table 18 (Table 17 legend for this assay uses nM)
[8] = Assay 2 (KI), ENPP1 hydrolysis of 2′,3′-cGAMP, AMP-Glo, […] ENPP-1, 24 μM cGAMP
[9] = ENPP1 hydrolysis of 2′,3′-cGAMP, AMP-Glo
[10] = inhibition of ENPP1 hydrolysis of 2′,3′-cGAMP, no unit in Table 18 (Table 17 legend for this assay uses nM)

Sequence of ENPP1 on MDA-MB-231 cells (P22413 whole entry, the tested form may be a part): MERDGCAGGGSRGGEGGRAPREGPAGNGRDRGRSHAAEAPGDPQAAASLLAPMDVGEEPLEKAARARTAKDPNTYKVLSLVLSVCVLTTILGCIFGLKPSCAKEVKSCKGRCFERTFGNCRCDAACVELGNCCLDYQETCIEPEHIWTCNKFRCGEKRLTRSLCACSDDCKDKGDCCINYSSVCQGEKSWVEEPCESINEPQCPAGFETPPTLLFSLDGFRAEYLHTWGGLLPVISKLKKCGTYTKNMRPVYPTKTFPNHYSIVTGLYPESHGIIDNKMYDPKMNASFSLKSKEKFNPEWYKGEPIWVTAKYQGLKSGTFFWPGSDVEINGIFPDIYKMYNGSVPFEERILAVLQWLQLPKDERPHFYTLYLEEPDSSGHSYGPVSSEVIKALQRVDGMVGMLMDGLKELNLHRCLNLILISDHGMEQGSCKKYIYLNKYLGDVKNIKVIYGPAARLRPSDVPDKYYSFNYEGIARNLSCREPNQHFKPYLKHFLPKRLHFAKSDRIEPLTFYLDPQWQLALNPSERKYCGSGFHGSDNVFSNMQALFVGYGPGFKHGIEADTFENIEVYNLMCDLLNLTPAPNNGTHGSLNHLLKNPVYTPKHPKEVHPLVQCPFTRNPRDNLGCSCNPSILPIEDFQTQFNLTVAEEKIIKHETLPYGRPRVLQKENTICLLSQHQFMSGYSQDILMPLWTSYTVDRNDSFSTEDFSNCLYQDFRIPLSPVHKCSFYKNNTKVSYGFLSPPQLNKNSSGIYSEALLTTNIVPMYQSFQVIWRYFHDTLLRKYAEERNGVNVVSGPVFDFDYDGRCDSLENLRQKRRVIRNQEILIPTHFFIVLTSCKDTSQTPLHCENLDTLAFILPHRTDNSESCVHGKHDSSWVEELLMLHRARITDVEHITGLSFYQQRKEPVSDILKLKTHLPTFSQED
T1 sequence (P22413 98-925): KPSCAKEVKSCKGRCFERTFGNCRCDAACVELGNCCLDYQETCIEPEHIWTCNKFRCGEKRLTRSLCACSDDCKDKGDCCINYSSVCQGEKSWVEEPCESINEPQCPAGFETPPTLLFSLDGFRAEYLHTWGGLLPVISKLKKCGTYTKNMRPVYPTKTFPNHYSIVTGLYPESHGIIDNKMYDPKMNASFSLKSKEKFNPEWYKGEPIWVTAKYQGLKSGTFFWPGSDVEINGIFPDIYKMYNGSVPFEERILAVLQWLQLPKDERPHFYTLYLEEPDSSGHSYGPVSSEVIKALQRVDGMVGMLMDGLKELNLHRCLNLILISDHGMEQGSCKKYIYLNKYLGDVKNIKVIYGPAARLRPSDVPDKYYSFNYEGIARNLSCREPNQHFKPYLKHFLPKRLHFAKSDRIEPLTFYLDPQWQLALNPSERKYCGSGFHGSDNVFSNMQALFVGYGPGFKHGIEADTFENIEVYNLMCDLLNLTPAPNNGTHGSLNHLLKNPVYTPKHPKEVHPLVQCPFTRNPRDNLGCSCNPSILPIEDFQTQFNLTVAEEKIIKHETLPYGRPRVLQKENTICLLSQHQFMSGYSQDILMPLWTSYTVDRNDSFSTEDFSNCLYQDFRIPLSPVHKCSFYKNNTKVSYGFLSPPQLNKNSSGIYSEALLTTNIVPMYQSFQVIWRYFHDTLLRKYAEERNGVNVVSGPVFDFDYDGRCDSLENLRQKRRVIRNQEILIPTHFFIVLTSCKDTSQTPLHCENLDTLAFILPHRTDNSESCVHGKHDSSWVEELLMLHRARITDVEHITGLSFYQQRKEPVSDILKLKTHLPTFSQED

Ki (ENPP-1 ECD [1]; [5]) [nM]	Ki [2, 6] [nM]	Ki (ENPP-1 ECD [1]; [7]) [nM]	Ki [2] [nM]	Compound	also measured
0.015	5.2	–	–	COc1cc2nccc(-c3ccc4c(c3)CN([S@@](C)(=N)=O)CC4)c2cc1OC [Compound 161a]	Ki (ENPP-1 ECD [1]; [4]): < 3 nM
–	–	0.34	15	COc1cccc2c(N3CCC(O)(CS(=N)(=O)C4CCC4)CC3)ncnc12 (stereo not shown) [Compound 191, cyclobutyl({[4-hydroxy-1-(8-methoxyquinazolin-4-yl)piperidin-4-yl]methyl})imino-λ^6-sulfanone]	–
–	–	0.021	0.45	COc1cc2ncnc(N3CCC4(CC3)CCN(S(=N)(=O)C3CC3)C4)c2cc1OC (stereo not shown) [Compound 160, {cyclopropyl[8-(6,7-dimethoxyquinazolin-4-yl)-2,8-diazaspiro[4.5]decan-2-yl]imino-λ^6-sulfanyl}one]	Ki (ENPP-1 ECD [1]; [8]): < 3 nM
0.071	1.2	–	–	COc1cc2nncc(N3CCC4(CC3)CCN([S@](C)(=N)=O)C4)c2cc1Cl [Compound 219a]	–
–	–	0.069	5.4	COc1cc2ncnc(N3CCC4(CC3)CCN(S(=N)(=O)CC(C)(C)O)C4)c2cc1OC (stereo not shown) [Compound 240, [8-(6,7-dimethoxyquinazolin-4-yl)-2,8-diazaspiro[4.5]decan-2-yl](2-hydroxy-2-methylpropyl)imino-λ^6-sulfanone]	–
–	–	0.84	40	COc1ccc2c(Oc3ccc(S(C)(=N)=O)cc3)c(C)cnc2c1 (stereo not shown) [Compound 168, imino({4-[(7-methoxy-3-methylquinolin-4-yl)oxy]phenyl})methyl-λ^6-sulfanone]	–
–	–	0.058	2.8	COc1cc2nc(C)nc(N3CCC4(CC3)CCN(S(C)(=N)=O)C4)c2cc1OC (stereo not shown) [Compound 213, [8-(6,7-dimethoxy-2-methylquinazolin-4-yl)-2,8-diazaspiro[4.5]decan-2-yl](imino)methyl-λ^6-sulfanone]	–
–	–	0.037	3.3	COc1cc2ncnc(N3CCC4(CCN(S(C)(=N)=O)CC4)C3)c2cc1OC (stereo not shown) [Compound 207, [2-(6,7-dimethoxyquinazolin-4-yl)-2,8-diazaspiro[4.5]decan-8-yl](imino)methyl-λ^6-sulfanone]	–
–	–	0.024	2.5	COc1cc2ncc(C#N)c(N3CCC4(CC3)CCN(S(C)(=N)=O)C4)c2cc1F (stereo not shown) [Compound 210, 6-fluoro-4-{2-[imino(methyl)oxo-λ^6-sulfanyl]-2,8-diazaspiro[4.5]decan-8-yl}-7-methoxyquinoline-3-carbonitrile]	–
–	–	0.074	6.5	COc1cc2nncc(N3CC4(CC(CS(C)(=N)=O)C4)C3)c2cc1OC (stereo not shown) [Compound 188, {[2-(6,7-dimethoxycinnolin-4-yl)-2-azaspiro[3.3]heptan-6-yl]methyl}(imino)methyl-λ^6-sulfanone]	–
–	–	0.81	15	COc1cccc2c(N3CC[C@@H](CS(C)(=N)=O)C3)ncnc12 (stereo partly drawn) [Compound 239, imino({[(3R)-1-(8-methoxyquinazolin-4-yl)pyrrolidin-3-yl]methyl})methyl-λ^6-sulfanone]	–
–	–	0.037	3.5	COc1cc2nccc(OCc3cccc(S(C)(=N)=O)c3)c2cc1OC (stereo not shown) [Compound 175, (3-{[(6,7-dimethoxyquinolin-4-yl)oxy]methyl}phenyl)(imino)methyl-λ^6-sulfanone]	–
–	–	0.36	15	COc1cccc2c(N3CCC(CS(C)(=N)=O)CC3)ncnc12 (stereo not shown) [Compound 146, imino({[1-(8-methoxyquinazolin-4-yl)piperidin-4-yl]methyl})methyl-λ^6-sulfanone]	Ki (ENPP-1 ECD [1]; [8]): < 3 nM
–	–	0.094	7.2	COc1cc2nccc(OCc3cccc(S(C)(=N)=O)c3)c2cc1Cl (stereo not shown) [Compound 176, (3-{[(6-chloro-7-methoxyquinolin-4-yl)oxy]methyl}phenyl)(imino)methyl-λ^6-sulfanone]	–
–	–	86	> 580	COc1cccc2c(N3CCC4(CC3)CN(S(C)(=N)=O)C4)ncnc12 (stereo not shown) [Compound 236, imino[7-(8-methoxyquinazolin-4-yl)-2,7-diazaspiro[3.5]nonan-2-yl]methyl-λ^6-sulfanone]	–
–	–	0.033	0.45	COc1cccc2c(N3CCC(CS(=N)(=O)C4CC4)CC3)c(C#N)cnc12 (stereo not shown) [Compound 189, 4-(4-{[cyclopropyl(imino)oxo-λ^6-sulfanyl]methyl}piperidin-1-yl)-8-methoxyquinoline-3-carbonitrile]	–
19	460	–	–	COc1cccc2c(N3CCC4(C3)CN([S@@](C)(=N)=O)C4)ncnc12 [Compound 223b]	–
–	–	0.091	2.3	CCOc1cccc2c(N3CCC(O)(CS(C)(=N)=O)CC3)ncnc12 (stereo not shown) [Compound 196, {[1-(8-ethoxyquinazolin-4-yl)-4-hydroxypiperidin-4-yl]methyl}(imino)methyl-λ^6-sulfanone]	–
0.0075	0.31	–	–	COc1cccc2c(N3CCC(C[S@](=N)(=O)C4CC4)CC3)c(C#N)cnc12 [Compound 189b]	–

Ki (ENPP-1 ECD [1]; [5]) [nM]	Ki [2, 6] [nM]	Ki (ENPP-1 ECD [1]; [7]) [nM]	Ki [2] [nM]	Compound	also measured
–	–	4.2	250	COc1ccc2c(Oc3ccc(S(C)(=N)=O)cc3)c(C#N)cnc2c1 (stereo not shown) [Compound 121, 4-{4-[imino(methyl)oxo-λ^6-sulfanyl]phenoxy}-7-methoxyquinoline-3-carbonitrile]	Ki (ENPP-1 ECD [1]; [8]): 3 to 300 nM
0.007	0.22	–	–	COc1cc2ncnc(N3CCC4(CC3)CCN([S@](=N)(=O)C3CC3)C4)c2cc1OC [Compound 160a]	–
0.0078	0.16	–	–	COc1cc2nccc(N3CCC4(CC3)CCN([S@](C)(=N)=O)C4)c2cc1OC [Compound 208b]	–
0.37	3.6	–	–	COc1cc2nccc(OC[C@@H]3CCN([S@](C)(=N)=O)C3)c2cc1F [Compound 229b]	–
–	–	0.25	8.7	COc1cc2nnc(C)c(N3CCC4(CC3)CCN(S(C)(=N)=O)C4)c2cc1OC (stereo not shown) [Compound 228, [8-(6,7-dimethoxy-3-methylcinnolin-4-yl)-2,8-diazaspiro[4.5]decan-2-yl](imino)methyl-λ^6-sulfanone]	–
–	–	0.12	4.6	CCS(=N)(=O)N1CCC2(CCN(c3ncnc4cc(OC)c(F)cc34)CC2)C1 (stereo not shown) [Compound 221, ethyl[8-(6-fluoro-7-methoxyquinazolin-4-yl)-2,8-diazaspiro[4.5]decan-2-yl]imino-λ^6-sulfanone]	–
0.034	1.2	–	–	COc1cccc2c(N3CC4(CCN([S@@](C)(=N)=O)C4)C3)c(C#N)cnc12 [Compound 222a]	–
–	–	0.28	19	COc1cc2ncc(C#N)c(N3CCC(CCS(C)(=N)=O)CC3)c2cc1OC (stereo not shown) [Compound 144, 4-(4-{2-[imino(methyl)oxo-λ6-sulfanyl]ethyl}piperidin-1-yl)-6,7-dimethoxyquinoline-3-carbonitrile]	Ki (ENPP-1 ECD [1]; [8]): < 3 nM
0.011	0.53	–	–	COc1cc2nccc(OCc3cccc([S@](C)(=N)=O)c3)c2cc1OC [Compound 175a]	–
0.26	28	–	–	COc1cc2nccc(N3CCC(CC[S@@](C)(=N)=O)CC3)c2cc1Cl [Compound 141a]	Ki (ENPP-1 ECD [1]; [4]): < 3 nM
0.0078	0.29	–	–	COc1cc2nccc(N3CCC4(CC3)CCN([S@@](=N)(=O)C3CC3)C4)c2cc1F [Compound 218a]	–
–	–	0.022	0.69	COc1cc2nccc(N3CCC4(CC3)CCN(S(=N)(=O)C3CC3)C4)c2cc1F (stereo not shown) [Compound 218, {cyclopropyl[8-(6-fluoro-7-methoxyquinolin-4-yl)-2,8-diazaspiro[4.5]decan-2-yl]imino-λ^6-sulfanyl}one]	–
–	–	1.1	45	COc1ccc2c(Oc3ccc(S(=N)(=O)CC(C)(C)O)cc3)ccnc2c1 (stereo not shown) [Compound 132, (2-hydroxy-2-methylpropyl)(imino){4-[(7-methoxyquinolin-4-yl)oxy]phenyl}-λ^6-sulfanone]	Ki (ENPP-1 ECD [1]; [8]): < 3 nM
0.12	4.5	–	–	COc1cccc2c(N3CCC(C[S@@](C)(=N)=O)CC3)ncnc12 [Compound 146a]	–
0.012	0.36	–	–	COc1cccc2c(N3CCC(O)(C[S@](=N)(=O)C4CC4)CC3)ncnc12 [Compound 193b]	–
–	–	0.19	4.4	CCOc1cccc2c(N3CCC(CS(C)(=N)=O)CC3)ncnc12 (stereo not shown) [Compound 187, {[1-(8-ethoxyquinazolin-4-yl)piperidin-4-yl]methyl}(imino)methyl-λ^6-sulfanone]	–
–	–	110	–	CS(=N)(=O)c1ccc(Oc2ccnc3ccccc23)cc1 (stereo not shown) [Compound 125, imino(methyl)[4-(quinolin-4-yloxy)phenyl]-λ^6-sulfanone]	IC50 (ENPP-1 ECD [3]; [9]): 10 to 1000 nM; IC50 (ENPP-1 ECD [3]; [10]): 340 nM
–	–	38	–	COc1ccc2c(OCc3ccc(S(C)(=N)=O)cc3Br)ccnc2c1 (stereo not shown) [Compound 137, (3-bromo-4-{[(7-methoxyquinolin-4-yl)oxy]methyl}phenyl)(imino)methyl-λ^6-sulfanone]	Ki (ENPP-1 ECD [1]; [8]): 3 to 300 nM; IC50 (ENPP-1 ECD [3]; [9]): 10 to 1000 nM; IC50 (ENPP-1 ECD [3]; [10]): 200 nM
–	–	6.9	–	COc1ccc2c(-c3ccc(CNS(C)(=N)=O)cc3)ccnc2c1 (stereo not shown) [Compound 162, N-{[4-(7-methoxyquinolin-4-yl)phenyl]methyl}methanesulfonoimidamide]	Ki (ENPP-1 ECD [1]; [8]): 3 to 300 nM; IC50 (ENPP-1 ECD [3]; [9]): 10 to 1000 nM; IC50 (ENPP-1 ECD [3]; [10]): 40 nM

— patent US11780849B2, “Imino sulfanone inhibitors of ENPP1” (Volastra Therapeutics, Inc., priority 2020, dated 2023)
